# In US10179771B2 (GALAPAGOS NV, priority 2014, dated 2019):
# Molecular target: T1, Recombinant human JAK1 catalytic domain (Homo sapiens, UniProt P23458)
# T1 construct: Recombinant human JAK1 (catalytic domain, amino acids 866-1154; catalog number PV4774); purchased Invitrogen PV4774
# Assay: JAK1 inhibition assay (polyGT substrate / Ulight-JAK1 peptide assay)
# Format: biochemical
# Conditions: Comparative Compounds (Table VI)
# Method: Recombinant human JAK1 catalytic domain (amino acids 850-1154; catalog number 08-144) was purchased from Carna Biosciences. 10 ng of JAK1 is incubated with 12.5 μg polyGT substrate (Sigma catalog number P0275) in kinase reaction buffer (15 mM Tris-HCl pH 7.5, 1 mM DTT, 0.01% Tween-20, 10 mM MgCl2, 2 μM non-radioactive ATP, 0.25 ρCi ^33P-gamma-ATP (GE Healthcare, catalog number AH9968) final concentrations) with or without 5 μL containing test compound or vehicle (DMSO, 1% final concentration), in a total volume of 25 μL, in a polypropylene 96-well plate (Greiner, V-bottom). After 45 min at 30° C., reactions are stopped by adding of 25 μL/well of 150 mM phosphoric acid. All of the terminated kinase reaction is transferred to prewashed (75 mM phosphoric acid) 96 well filter plates (Perkin Elmer catalog number 6005177) using a cell harvester (Perkin Elmer). Plates are washed 6 times with 300 μL per well of a 75 mM phosphoric acid solution and the bottom of the plates is sealed. 40 μL/well of Microscint-20 is added, the top of the plates is sealed and readout is performed using the Topcount (Perkin Elmer). Kinase activity is calculated by subtracting counts per min (cpm) obtained in the presence of a positive control inhibitor (10 μM staurosporine) from cpm obtained in the presence of vehicle. The ability of a test compound to inhibit this activity is determined as:
# [formula] • RFU test compound=RFU determined for sample with test compound present • RFU control=RFU determined for sample with positive control inhibitor • RFU vehicle=RFU determined in the presence of vehicle
# Dose dilution series are prepared for the compounds enabling the testing of dose-response effects in the JAK1 assay and the calculation of the IC50 for each compound. Each compound is routinely tested at concentration of 20 μM followed by a 1/3 serial dilution, 8 points (20 μM-6.67 μM-2.22 μM-740 nM-247 nM-82 nM-27 nM-9 nM) in a final concentration of 1% DMSO. When potency of compound series increased, more dilutions are prepared and/or the top concentration was lowered (e.g. 5 μM, 1 μM).
# Recombinant human JAK1 (catalytic domain, amino acids 866-1154; catalog number PV4774) was purchased from Invitrogen. 1 ng of JAK1 was incubated with 20 nM Ulight-JAK1 (tyr1023) peptide (Perkin Elmer catalog number TRF0121) in kinase reaction buffer (25 mM MOPS pH6.8, 0.01% Brij-35, 5 mM MgCl2, 2 mM DTT, 7 μM ATP) with or without 4 μL containing test compound or vehicle (DMSO, 1% final concentration), in a total volume of 20 μL, in a white 384 Opti plate (Perkin Elmer, catalog number 6007290). After 60 min at room temperature, reactions were stopped by adding 20 μL/well of detection mixture (1× detection buffer (Perkin Elmer, catalog number CR97-100C), 0.5 nM Europium-anti-phosphotyrosine (PT66) (Perkin Elmer, catalog number AD0068), 10 mM EDTA). Readout is performed using the Envision with excitation at 320 nm and measuring emission at 615 nm (Perkin Elmer). Kinase activity was calculated by subtracting relative fluorescence units (RFU) obtained in the presence of a positive control inhibitor (10 μM staurosporine) from RFU obtained in the presence of vehicle. The ability of a test compound to inhibit this activity was determined as: Percentage inhibition=((RFU determined for sample with test compound present−RFU determined for sample with positive control inhibitor) divided by (RFU determined in the presence of vehicle−RFU determined for sample with positive control inhibitor))*100.
# Dose dilution series were prepared for the compounds enabling the testing of dose-response effects in the JAK1 assay and the calculation of the IC50 for the compound. Each compound is routinely tested at concentration of 20 μM followed by a 1/5 serial dilution, 10 points in a final concentration of 1% DMSO. When potency of compound series increases, more dilutions are prepared and/or the top concentration are lowered (e.g. 5 μM, 1 μM). […]
# T1 sequence (P23458 866-1154): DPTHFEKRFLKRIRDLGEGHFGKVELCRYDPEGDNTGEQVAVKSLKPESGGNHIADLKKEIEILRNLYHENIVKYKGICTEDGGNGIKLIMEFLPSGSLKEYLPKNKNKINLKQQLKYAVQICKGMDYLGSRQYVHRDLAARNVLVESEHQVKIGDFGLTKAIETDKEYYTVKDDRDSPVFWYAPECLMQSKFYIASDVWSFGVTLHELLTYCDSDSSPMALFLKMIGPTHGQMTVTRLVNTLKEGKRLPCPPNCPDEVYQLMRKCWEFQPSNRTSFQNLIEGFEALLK
row,IC50,Compound
1,> 500 nM,"CN(c1ccc2ncn(C)c2c1)c1ccc(C#N)cc1F [C, 3-fluoro-4-[methyl-(3-methylbenzimidazol-5-yl)amino]benzonitrile, reference compound]"

# Same assay, conditions: Illustrative Compounds of the invention (Table V)
row,Compound,IC50
1,"Cc1cc(C#N)ncc1Oc1cc(NC(=O)[C@H]2C[C@H]2F)c2ncn(C)c2c1 [Cpd 20, (1R,2R)-N-[6-[(6-cyano-4-methyl-3-pyridyl)oxy]-1-methyl-benzimidazol-4-yl]-2-fluoro-cyclopropanecarboxamide]",0.1 to 50 nM
2,"CN(c1cc(NC(=O)[C@H]2C[C@H]2F)c2ncn(C)c2c1)c1ccc(C#N)nc1F [Cpd 14, (1R,2R)-N-[6-[(6-cyano-2-fluoro-3-pyridyl)-methyl-amino]-1-methyl-benzimidazol-4-yl]-2-fluoro-cyclopropanecarboxamide]",0.1 to 50 nM
3,"Cc1cc(C#N)ncc1N(C)c1cc(NC(=O)[C@H]2C[C@H]2F)c2ncn(C)c2c1 [Cpd 9, (1R,2R)-N-(6-((6-cyano-4-methylpyridin-3-yl)(methyl)amino)-1-methyl-1H-benzo[d]imidazol-4-yl)-2-fluorocyclopropanecarboxamide]",0.1 to 50 nM
4,"Cc1cc(F)ncc1N(C)c1cc(NC(=O)[C@H]2C[C@H]2F)c2ncn(C)c2c1 [Cpd 12, (1R,2R)-2-fluoro-N-[6-[(6-fluoro-4-methyl-3-pyridyl)-methyl-amino]-1-methyl-benzimidazol-4-yl]cyclopropanecarboxamide]",0.1 to 50 nM
5,"CN(c1cc(NC(=O)[C@H]2C[C@H]2F)c2ncn(C)c2c1)c1ccc(S(C)(=O)=O)cc1F [Cpd 17, (1R,2R)-2-fluoro-N-[6-(2-fluoro-N-methyl-4-methylsulfonyl-anilino)-1-methyl-benzimidazol-4-yl]cyclopropanecarboxamide]",100 to 500 nM
6,"CCc1cc(C#N)cc(F)c1N(C)c1cc(NC(=O)OC)c2ncn(C)c2c1 [Cpd 5, methyl 6-((4-cyano-2-ethyl-6-fluorophenyl)(methyl)amino)-1-methyl-1H-benzo[d]imidazol-4-ylcarbamate]",0.1 to 50 nM
7,"CCc1cc(C#N)cc(F)c1N(C)c1cc(NC(=O)C2CC2)c2ncn(C)c2c1 [Cpd 3, N-(6-((4-cyano-2-ethyl-6-fluorophenyl)(methyl)amino)-1-methyl-1H-benzo[d]imidazol-4-yl)cyclopropanecarboxamide]",0.1 to 50 nM

# Results, then the compound that gave them:
row,IC50,Compound
1,0.1 to 50 nM,"CCc1cc(C(N)=O)ncc1N(C)c1cc(NC(=O)C2CC2)c2ncn(C)c2c1 [Cpd 24, 5-((4-(cyclopropanecarboxamido)-1-methyl-1H-benzo[d]imidazol-6-yl)(methyl)amino)-4-ethylpicolinamide]"
2,50 to 100 nM,"Cc1cc(C#N)ncc1Oc1cc(N)c2ncn(C)c2c1 [Cpd 28, 5-(7-amino-3-methyl-benzimidazol-5-yl)oxy-4-methyl-pyridine-2-carbonitrile]"
3,50 to 100 nM,"Cc1cc(C(N)=O)ncc1Oc1cc(NC(=O)[C@H]2C[C@H]2F)c2ncn(C)c2c1 [Cpd 32, 5-[7-[[(1R,2R)-2-fluorocyclopropanecarbonyl]amino]-3-methyl-benzimidazol-5-yl]oxy-4-methyl-pyridine-2-carboxamide]"
4,0.1 to 50 nM,"CCc1cc(C(N)=O)ncc1N(C)c1cc(NC(=O)[C@H]2C[C@H]2F)c2ncn(C)c2c1 [Cpd 25, 4-ethyl-5-((4-((1R,2R)-2-fluorocyclopropanecarboxamido)-1-methyl-1H-benzo[d]imidazol-6-yl)(methyl)amino)picolinamide]"
5,0.1 to 50 nM,"Cc1cc(C#N)ncc1Oc1cc(NC(=O)NC(C)C)c2ncn(C)c2c1 [Cpd 38, 1-[6-[(6-cyano-4-methyl-3-pyridyl)oxy]-1-methyl-benzimidazol-4-yl]-3-isopropyl-urea]"
6,100 to 500 nM,"CNc1cc(Oc2cnc(C#N)cc2C)cc2c1ncn2C [Cpd 34, 4-methyl-5-[3-methyl-7-(methylamino)benzimidazol-5-yl]oxy-pyridine-2-carbonitrile]"
7,0.1 to 50 nM,"CCc1cc(S(C)(=O)=O)ncc1Oc1cc(NC(=O)C2CC2)c2ncn(C)c2c1 [Cpd 29, N-[6-[(4-ethyl-6-methylsulfonyl-3-pyridyl)oxy]-1-methyl-benzimidazol-4-yl]cyclopropanecarboxamide]"
